Literature values in PMC12309854, “Evidencing the role of a conserved polar signaling channel in the activation mechanism of the μ-opioid receptor” (Computational and Structural Biotechnology Journal, 2025).

Biological target: MOP
Parameters: method as in PMID 31527522
Conditions: value given in the method for the Cheng-Prusoff calculation, source not stated; protocol ref 58; read-out: Kd of the radioligand
Experimental: Binding assays were carried out following a previously published protocol, at 25 °C for a duration of 60 min using a 50 mM Tris–HCl buffer (pH 7.4) in glass tubes. […] Non-specific binding was evaluated u ...

Substance: DAMGO [[^3H]DAMGO]
- Kd: 0.5 nM
